PubChem BioAssay (NCI)
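96-well plates; 48 h exposure; 5 concentrations. Endpoints by linear interpolation between flanking doses. Not reached: highest tested concentration assigned. Here, GI50 denotes the concentration required for 50% inhibition of growth. At the TGI there is no net growth.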

How the values were obtained:
Assay in all cases: growth of human tumour cells (NCI), 48 h
[1] = test system: M14 melanoma
[2] = test system: HL-60(TB) leukemia
[3] = test system: MCF7 breast
[4] = test system: 786-0 renal
[5] = test system: TK-10 renal
[6] = test system: OVCAR-3 ovarian
[7] = test system: HCT-15 colon
[8] = test system: PC-3 prostate
[9] = test system: NCI-H23 lung
[10] = test system: SNB-75 CNS
[11] = test system: LOX IMVI melanoma
[12] = test system: KM12 colon
[13] = test system: U251 CNS
[14] = test system: DU-145 prostate
[15] = test system: HCT-116 colon
[16] = test system: A498 renal
[17] = test system: OVCAR-4 ovarian
[18] = test system: SW-620 colon
[19] = test system: COLO 205 colon
[20] = test system: IGROV1 ovarian
[21] = test system: SF-295 CNS
[22] = test system: K-562 leukemia
[23] = test system: RXF 393 renal
[24] = test system: NCI/ADR-RES ovarian
[25] = test system: NCI-H522 lung
[26] = test system: MOLT-4 leukemia
[27] = test system: CAKI-1 renal
[28] = test system: OVCAR-5 ovarian
[29] = test system: SR leukemia
[30] = test system: CCRF-CEM leukemia
[31] = test system: HT29 colon
[32] = test system: MDA-MB-231 breast
[33] = test system: NCI-H460 lung
[34] = test system: SK-MEL-28 melanoma
[35] = test system: EKVX NSCLC
[36] = test system: HOP-92 NSCLC
[37] = test system: SK-OV-3 ovarian
[38] = test system: SF-539 CNS
[39] = test system: SK-MEL-2 melanoma
[40] = test system: ACHN renal
[41] = test system: MDA-MB-435
[42] = test system: UO-31 renal
[43] = test system: T-47D breast
[44] = test system: SN12C renal
[45] = test system: SK-MEL-5 melanoma
[46] = test system: MALME-3M melanoma
[47] = test system: SNB-19 CNS
[48] = test system: HS 578T breast
[49] = test system: UACC-257 melanoma
[50] = test system: A549 NSCLC
[51] = test system: OVCAR-8 ovarian
[52] = test system: BT-549 breast
[53] = test system: UACC-62 melanoma
[54] = test system: SF-268 CNS
[55] = test system: NCI-H226 lung

O=C1C[C@@H]2/C(=C(O)\C=C\c3ccccc3)C(=O)C=C[C@@H]2O1
GI50 [1]: 435 nM | TGI [1]: 2630 nM | GI50 [2]: 1570 nM | TGI [2]: 5930 nM | GI50 [3]: 830 nM | TGI [3]: 13500 nM | GI50 [4]: 1740 nM | TGI [4]: 3490 nM | GI50 [5]: 2630 nM | TGI [5]: 7590 nM | GI50 [6]: 497 nM | TGI [6]: 1820 nM | GI50 [7]: 1300 nM | TGI [7]: 3690 nM | GI50 [8]: 1950 nM | TGI [8]: 4900 nM | GI50 [9]: 1780 nM | TGI [9]: 3950 nM | GI50 [10]: 2070 nM | TGI [10]: 5780 nM | GI50 [11]: 214 nM | TGI [11]: 485 nM | GI50 [12]: 505 nM | TGI [12]: 1820 nM | GI50 [13]: 1560 nM | TGI [13]: 3410 nM | GI50 [14]: 515 nM | TGI [14]: 1930 nM | GI50 [15]: 382 nM | TGI [15]: 1600 nM | GI50 [16]: 10900 nM | TGI [16]: 23100 nM | GI50 [17]: 3640 nM | TGI [17]: 13000 nM | GI50 [18]: 485 nM | TGI [18]: 4940 nM | GI50 [19]: 992 nM | TGI [19]: 2620 nM | GI50 [20]: 385 nM | TGI [20]: 1560 nM | GI50 [21]: 3440 nM | TGI [21]: 13700 nM | GI50 [22]: 449 nM | TGI [22]: > 100000 nM | GI50 [23]: 1470 nM | TGI [23]: 2830 nM | GI50 [24]: 690 nM | TGI [24]: 3400 nM | GI50 [25]: 206 nM | TGI [25]: 615 nM | GI50 [26]: 1850 nM | TGI [26]: 5770 nM | GI50 [27]: 2350 nM | TGI [27]: 11800 nM | GI50 [28]: 1930 nM | TGI [28]: 3840 nM | GI50 [29]: 464 nM | TGI [29]: 17000 nM | GI50 [30]: 447 nM | TGI [30]: 2890 nM | GI50 [31]: 844 nM | TGI [31]: 2400 nM | GI50 [32]: 2130 nM | TGI [32]: 4210 nM | GI50 [33]: 2230 nM | TGI [33]: 7180 nM | GI50 [34]: 2330 nM | TGI [34]: 6560 nM | GI50 [35]: 13000 nM | TGI [35]: 26000 nM | GI50 [36]: 1590 nM | TGI [36]: 3210 nM | GI50 [37]: 4860 nM | TGI [37]: 16900 nM | GI50 [38]: 2300 nM | TGI [38]: 8350 nM | GI50 [39]: 1770 nM | TGI [39]: 3560 nM | GI50 [40]: 1560 nM | TGI [40]: 3290 nM | GI50 [41]: 1610 nM | TGI [41]: 3490 nM | GI50 [42]: 878 nM | TGI [42]: 2200 nM | GI50 [43]: 905 nM | TGI [43]: 4550 nM | GI50 [44]: 2150 nM | TGI [44]: 5640 nM | GI50 [45]: 2010 nM | TGI [45]: 4820 nM | GI50 [46]: 1420 nM | TGI [46]: 3000 nM | GI50 [47]: 9030 nM | TGI [47]: 22600 nM | GI50 [48]: 5270 nM | TGI [48]: 60500 nM | GI50 [49]: 1830 nM | TGI [49]: 3900 nM | GI50 [50]: 3510 nM | TGI [50]: 12800 nM | GI50 [51]: 3060 nM | TGI [51]: 12300 nM | GI50 [52]: 2840 nM | TGI [52]: 8450 nM | GI50 [53]: 3000 nM | TGI [53]: 12200 nM | GI50 [54]: 2090 nM | TGI [54]: 6140 nM | GI50 [55]: 1940 nM | TGI [55]: 4450 nM
